# Measured values: patent publication US20220160712A1, “METHODS OF TREATING RHEUMATOID ARTHRITIS AND FOR PREDICTING THE RESPONSE TO METHOTREXATE” (CHAN ZUCKERBERG BIOHUB, INC., priority 2020, published 2022)
# Experiments:
# C. asparagiforme = assay: RNA-seq after MTX treatment, with time course; type: cell-based, Clostridium asparagiforme; details: MTX 100 μg/ml
# Method: Genomes were obtained from NCBI's GenBank Assembly database. Culture media was composed of BHI+and allowed to equilibrate in an anaerobic environment prior to use. Briefly, bacteria were cultured in BHI+at 37° C. in an anaerobic chamber. Cultures for each isolate were grown to mid-exponential (achieving an OD600˜0.5), aliquoted into triplicates, treated for 30 minutes with either DMSO or MTX 100 μg/ml, and then removed from the anaerobic chamber. The mid-exponential time point was selected to facilitate comparisons across isolates, as has been done by others (O'Rourke, A., et al. (2020), Antimicrob Agents Chemother 64), since lag and stationary phases would present challenges in term of biomass (lag phase with low biomass) and differing physiology (i.e., sporulation among some isolates and not others). For C. asparagiforme, cultures were incubated for 4 and 20 hours as well and profiled. Cultures were centrifuged at 2000 rpm for 10 minutes at 4° C. to facilitate removal of supernatant, and the remaining bacterial pellet was flash-frozen in liquid nitrogen.
# Each bacterial pellet was incubated with 1 ml of Tri reagent (Sigma Aldrich, catalog #: T9424) at room temperature for 10 minutes. The cell suspension was transferred into Lysing Matrix E tubes (MP Biomedicals, 116914050), and homogenized in a bead-beater (Mini-Beadbeater-24, BioSpec) for 5 minutes at room temperature. The sample was incubated with 200 μL of chloroform at room temperature for 10 minutes, followed by centrifugation at 16,000×g for 15 minutes at 4° C. Next, 500 μL of the upper aqueous phase was transferred into a new tube and 500 μL of 100% ethanol was added. To isolate RNA, PureLink RNA Mini Kit (Life Technologies, catalog #: 12183025) was used. This mixture was transferred onto a PureLink spin column and spun at >12,000×g for 30 seconds. The column was washed with 350 μl of wash buffer I as described in the PureLink manual. The column was incubated with 80 μl of PureLink DNase (Life Technologies, catalog #: 12185010) at room temperature for 15 minutes, and washed with 350 μl of wash buffer I. The column was washed with wash buffer II twice as described in the PureLink manual. Total RNA was recovered in 50 μl of RNAase-free water. A second round of off-column DNAse treatment was undertaken. The RNA was incubated with 6 μl of TURBO DNAse (Ambion, ThermoFisher, catalog #: AM2238) at 37° C. for 30 minutes. To stop the reaction, 56 μl of lysis buffer from the PureLink kit and 56 μl of 100% ethanol was added to the sample and vortexed. This suspension was transferred onto a PureLink column and washed once with 350 μl of wash buffer I and twice with 500 μl of wash buffer II. The RNA was recovered in 30 μl of RNAse-free water.
# (§1) Total RNA was subjected to rRNA depletion using Ribo-Zero Bacterial rRNA Depletion (Illumina, catalog #: MRZB12424), following the manufacturer's protocol. […] For each sample, fastq files are available in NCBI's Sequence Read Archive (SRA), accession number PRJNA656577.
# (§2) Reads were trimmed using Trimmomatic (v0.32) (Bolger, A. M., et al., (2014), Bioinformatics 30, 2114-2120), and ribosomal reads were removed using SortMeRNA (v2.1) (Kopylova, E., et al., (2012), Bioinformatics 28, 3211-3217). Reads were mapped to reference genomes using Bowtie2 (Langmead, B., and Salzberg, S. L. (2012), Nat Methods 9, 357-359) using the following options: -q, —met file, —end-to-end, —sensitive. […]
# B. theta = assay: RNA-seq after MTX treatment; type: cell-based, Bacteroides thetaiotaomicron; details: MTX 100 μg/ml
# Method: (§3) Genomes were obtained from NCBI's GenBank Assembly database. Culture media was composed of BHI+and allowed to equilibrate in an anaerobic environment prior to use. Briefly, bacteria were cultured in BHI+at 37° C. in an anaerobic chamber. Cultures for each isolate were grown to mid-exponential (achieving an OD600˜0.5), aliquoted into triplicates, treated for 30 minutes with either DMSO or MTX 100 μg/ml, and then removed from the anaerobic chamber. […]
# as §1, §2
# Clostridium sporogenes = assay: RNA-seq after MTX treatment; type: cell-based; details: MTX 100 μg/ml, 30 minutes; padj<0.2, DESeq
# Method: as §3, §1, §2
smiles,measurement,setting,value
"CN(Cc1cnc2nc(N)nc(N)c2n1)c1ccc(C(=O)N[C@@H](CCC(=O)O)C(=O)O)cc1 [MTX, methotrexate]",number of pathways enriched,C. asparagiforme,23 pathways
same,number of differentially expressed genes,"C. asparagiforme; 30 minutes, padj<0.2, DESeq",468 genes
same,number of transcripts differentially expressed at all three timepoints,"C. asparagiforme; 30 minutes, 4 and 20 hours, padj<0.2, DESeq",41
same,DHFR or AICAR transformylase expression,C. asparagiforme; time course,no significant differences
same,adenylosuccinate synthase (ADSS) expression,C. asparagiforme; time course,significantly upregulated
same,genes in the transcriptome affected,"B. theta; 30 minutes, padj<0.2, DESeq",83%
same,number of pathways enriched among differentially expressed transcripts,B. theta; transcripts with padj<0.2,57 pathways
same,number of differentially expressed genes,Clostridium sporogenes,21 genes
